In brackets after ≈: the same amount, converted by molar mass. Entries after “also recorded” stand apart in the source; their conditions may differ. Read-outs that look alike come from different tables or passages of the source.
Experiments:
NK1R = NK1R (Homo sapiens, UniProt P25103); assay: In vitro functional assay, free Ca2+ concentration in U373MG cells endogenously expressing NK1R; format: cell-based; design: which endogenously express the NK1R; endogenous in cells; host or cells: U373MG human glioblastoma astrocytoma cells (ATCC)
Chain of NK1R (P25103 whole entry): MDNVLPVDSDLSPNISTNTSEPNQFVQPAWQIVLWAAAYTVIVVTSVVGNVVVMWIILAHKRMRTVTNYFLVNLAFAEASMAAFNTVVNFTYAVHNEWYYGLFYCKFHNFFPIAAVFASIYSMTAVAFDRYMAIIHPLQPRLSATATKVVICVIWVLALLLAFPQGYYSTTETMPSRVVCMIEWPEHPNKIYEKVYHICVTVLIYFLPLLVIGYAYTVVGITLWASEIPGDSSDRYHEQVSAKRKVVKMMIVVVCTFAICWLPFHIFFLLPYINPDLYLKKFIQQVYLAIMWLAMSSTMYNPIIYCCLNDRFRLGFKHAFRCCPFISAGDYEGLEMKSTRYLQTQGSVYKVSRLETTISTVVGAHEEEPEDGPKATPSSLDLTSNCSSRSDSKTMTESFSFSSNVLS
Procedure: In vitro functional assays were performed by assessing changes in free Ca^2+ ion concentration in human glioblastoma (U373MG) cells, which endogenously express the NK1R. Agonist activity of EUC-001 is expressed as a percentage of the agonist response induced by the selective NK1R agonist [Sar^9, Met(O2)^11]-substance P (100 nM; Figure 2A), whilst antagonist activity is expressed as a percentage change in the response induced by 3 nM [Sar^9, Met(O2)^11]-SP (Figure 2B).
Human glioblastoma astrocytoma (U373MG) cells (ATCC) were used for in vitro function studies involving intracellular calcium measurements. […] Intracellular calcium concentrations were determined by using the calcium chelating agent fura-2 (Molecular Probes, Waltham, MA, USA). Aliquots of fura-2-loaded cells were subject to agonist stimulation and fluorescence emission was recorded using an MS-5 spectrophotometer (Perkin Elmer, Shelton, CT, USA). Loading of cells, fluorescence monitoring, calibration procedures, and other experimental details were as previously described.
For agonist activity, results are expressed as a percentage of the control agonist response induced by the selective NK1R agonist [Sar^9, Met(O2)^11]-substance P (100 nM) for a range of concentrations of EUC-001. […]

[1] = target: T1, recombinant human NK2 receptor (Homo sapiens, UniProt P21452); assay: Radioligand binding, recombinant human NK2 receptor
T1 sequence (P21452 1-398): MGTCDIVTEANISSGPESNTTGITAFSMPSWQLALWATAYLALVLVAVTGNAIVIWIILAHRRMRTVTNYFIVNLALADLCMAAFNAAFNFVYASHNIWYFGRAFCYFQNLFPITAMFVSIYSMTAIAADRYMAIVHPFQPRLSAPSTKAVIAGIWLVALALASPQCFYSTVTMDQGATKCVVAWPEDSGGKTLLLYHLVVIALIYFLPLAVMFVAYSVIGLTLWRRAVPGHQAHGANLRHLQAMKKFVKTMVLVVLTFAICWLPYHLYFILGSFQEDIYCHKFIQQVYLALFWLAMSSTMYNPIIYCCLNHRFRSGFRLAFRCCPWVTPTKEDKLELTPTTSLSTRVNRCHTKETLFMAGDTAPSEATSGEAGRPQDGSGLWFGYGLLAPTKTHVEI

central NK1Rs = target: T2, central NK1Rs (Meriones unguiculatus, UniProt Q5DUB1); assay: Gerbil foot-tapping response induced by icv GR73632; format: in vivo, Mongolian Gerbils
T2 construct: antagonize central NK1Rs in vivo; from tissue; host or cells: brain of living Mongolian gerbils (in vivo)
T2 sequence (Q5DUB1 whole entry): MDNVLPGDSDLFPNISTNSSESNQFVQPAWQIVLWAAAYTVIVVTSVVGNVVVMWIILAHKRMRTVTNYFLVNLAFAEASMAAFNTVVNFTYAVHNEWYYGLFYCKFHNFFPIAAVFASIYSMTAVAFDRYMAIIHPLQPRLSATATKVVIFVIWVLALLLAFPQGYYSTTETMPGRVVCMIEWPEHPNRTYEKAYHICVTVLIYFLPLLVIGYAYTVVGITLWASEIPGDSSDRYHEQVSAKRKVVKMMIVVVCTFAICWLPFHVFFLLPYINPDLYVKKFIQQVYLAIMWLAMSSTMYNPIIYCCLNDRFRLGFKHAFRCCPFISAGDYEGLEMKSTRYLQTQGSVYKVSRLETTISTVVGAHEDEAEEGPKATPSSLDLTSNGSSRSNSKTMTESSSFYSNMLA
Description: The ability of EUC-001 to antagonize central NK1Rs in vivo was examined using the gerbil foot-tapping response. The hind-foot-tapping response is a species-specific, CNS-mediated reaction that occurs in response to fear-evoking situations or aversive stimuli. The same, stereotyped response can be induced by the intracerebroventricular (icv) injection of a selective NK1 receptor agonist, such as GR73632 [59]. In turn, this NK1R-mediated response can be inhibited by centrally acting NK1R antagonists, as well as other anxiolytic agents. Animals were pretreated with a range of concentrations of EUC-001 2 h prior to the icv administration of the NK1R agonist, GR73632.
Female Mongolian Gerbils weighing 30–60 g were administered drug vehicle or a predetermined dose of EUC-001 either orally (po) at a volume of 5 mL/kg or intravenously (iv) at a volume of 1 mL/kg. […] Following recovery from the anesthesia (recovery of the righting reflex), a 5 min observation period was allocated per study and the amount of time gerbils spent tapping their hind paws was measured.

Aqueous solubility = format: physicochemical; settings: water

SMILES: Cc1ccccc1-c1cc(N2CCN(C)CC2)ncc1C(=O)N(C)Cc1cc(C(F)(F)F)cc(C(F)(F)F)c1 [EUC-001, N-(3,5-Bis-trifluoromethyl-benzyl)-N-methyl-6-(4-methyl-piperazine-1-yl)-4-o-tolyl-nicotinamide]
- Agonist activity, percentage of response to 100 nM [Sar9, Met(O2)11]-substance P (NK1R): did not exhibit any detectable agonist activity; also recorded: no agonist activity
- IC50 (NK1R; 3 nM [Sar9, Met(O2)11]-SP, read-out: IC50, inhibition of [Sar9, Met(O2)11]-SP-mediated response): 0.69 nM
- Ki [1]: 3400 nM
- ED50 (central NK1Rs; iv administration, icv GR73632, read-out: IC50 dose, inhibition of foot-tapping response): 0.68 mg/kg
- ED50 (central NK1Rs; oral administration (po), icv GR73632 3 pmol/5 µL, read-out: IC50 dose, inhibition of foot-tapping response): 0.89 mg/kg
- solubility (Aqueous solubility; free base): 500 µg/mL (≈ 908 µM)
- solubility (Aqueous solubility; hydrochloride salt): 1500 µg/mL
